Experimental findings from ChEMBL document CHEMBL3244339, “Antitumor 1-(X-aryl)-3,3-dialkyltriazenes. 1. Quantitative structure-activity relationships vs. L1210 leukemia in mice” (J Med Chem, 1978) are described below.

Structures are written as SMILES. Active and inactive are the calls of the source. The calls are words filed in the database; no cut-off is given here.

Series [1] is described as follows: Aqueous phase distribution coefficient, log P of the compound in 0.01 M NaOH. It is filed as physicochemical.
For the next series, the species on record is Mus musculus. The experiment in a line: Toxicity in mouse L1210 cells allografted mouse assessed as mortality up to 5 days. It is filed as organism-based. To be noted: l1210, 120 h.
Series [2] can be described thus: Octanol-saturated water partition coefficient, log D of the compound. The series is classed as physicochemical.
Series [3] concerns L1210. The experiment in a line: Antitumor activity against mouse L1210 cells allografted in mouse assessed as increase of host lifespan of 110 days. The series is classed as functional, cell-based.
The nature of series [4]: Aqueous phase distribution coefficient, log P of the compound in phosphate buffer at pH 7.4. It is filed as physicochemical.
The nature of series [5]: Distribution coefficient, log P of the compound. As to conditions: octanol/water; read-out: logP. It is filed as physicochemical.
The subject of series [6] is L1210. The experiment in a line: Antitumor activity against mouse L1210 cells allografted in mouse assessed as increase of host lifespan. It is filed as functional.

For the molecule `CN(C)/N=N/c1ccccc1CO`, in series [1], the logP stood at 1.73. Further, the Activity result in the series listed under Mus musculus is listed as “Toxic”.
For the molecule `CN(C)/N=N/c1ccc(C#N)cc1`, the Activity result in the series filed under Mus musculus was “Toxic”. In series [2], this molecule showed a logD of 2.39.
On to `CSc1ccccc1/N=N/N(C)C`, for which, in the series with L1210 [3], the outcome was inactive. Also, in series [4], the logD stood at 3.13.
In the case of `CN(C)/N=N/c1ccccc1C(N)=O`, in series [5], the logP was determined as 1.73. This molecule showed a logD in series [4] of 1.73. In addition, the “log(1/C)” value in the series on L1210 [6] is reported as 3.31.
In the case of `CCCCN(C)/N=N/c1ccc(C(N)=O)cc1`, the “log(1/C)” value in the series with L1210 [6] is reported as 3.47. In series [2], this molecule had a logD of 2.46.
Regarding `CCCN(C)/N=N/c1ccccc1C(=O)O`, the logP in series [1] was -1.66. Further, the “log(1/C)” value in the series with L1210 [6] is 3.74.
Regarding `COc1ccccc1/N=N/N(C)C`, the log distribution coefficient (logD) in series [4] worked out at 2.34. Besides, in the series filed under Mus musculus, the Activity result is on record as “Toxic”.
Take `CC(=O)N(C)/N=N/c1ccc(C)cc1`: the logP in series [5] is 3.13. In addition, in the series on L1210 [6], the “log(1/C)” value is reported as 2.78. In series [2], this molecule yielded a logD of 3.13.
`CN(C)/N=N/c1ccccc1Cl` yielded a logP in series [1] of 2.97. Further, the “log(1/C)” value in the series on L1210 [6] was determined as 3.26.
`CN(C)/N=N/c1cccc([N+](=O)[O-])c1`: the Activity result in the series filed under Mus musculus is reported as “Toxic”. The logD in series [2] came to 2.75.
`CN(C)/N=N/c1ccc(SC#N)cc1C(N)=O`: in the series on L1210 [3], the outcome was inactive.
On to `CN(C)/N=N/c1ccccc1I`, for which the logP in series [1] stood at 3.5. The result with L1210 [3] was inactive.
As to `CN(C)/N=N/c1ccccc1C(=O)NN`, the Activity result in the series listed under Mus musculus was “Toxic”. This molecule yielded a logD in series [2] of 1.28.
`CN(CCO)/N=N/c1ccccc1` registered a logP in series [1] of 1.71. For the same molecule, the Activity result in the series listed under Mus musculus is listed as “Toxic”.
As to `CN(C)/N=N/c1ccccc1C#N`, the result with L1210 [3] was inactive.
For the molecule `CCCCCCCCN(C)/N=N/c1ccccc1C(=O)O`, the logP in series [5] and in series [1] was 0.24 throughout. Further, the “log(1/C)” value with L1210 [6] came to 3.47.
With `COC(=O)c1c[nH]nc1/N=N/N(C)C`, the “log(1/C)” value in the series on L1210 [6] was found to be 3.49. This molecule also yielded a logD in series [2] of 0.04.
Consider `CN(C)/N=N/c1ccccc1C(=O)NC#N`, for which, in series [2], the logD came to 0.8.
Regarding `CN(C)/N=N/c1ccccc1`, the logP in series [5] amounted to 2.59. The molecule also returned a logD in series [4] of 2.59. Also, the “log(1/C)” value with L1210 [6] is reported as 3.85.
In the case of `CCCCCCCCN(C)/N=N/c1nc[nH]c1C(N)=O`, the logP in series [5] amounted to 3.2; in series [1] it was 3.22. In addition, in the series on L1210 [6], the “log(1/C)” value is listed as 3.

The term logP denotes a log measure of how a compound divides between an organic and an aqueous phase. As a reminder, the logD is the decadic logarithm of the distribution of all forms, ionised or not, between an organic phase and buffer at a given pH. High values mean higher lipophilicity, low ones lower lipophilicity.
